Reference: US4605651A, “Antibiotic amino acid derivatives of cephalosporins” (Kyoto Pharmaceutical Industries, Ltd., priority 1982, dated 1986)
Structures can show the parent of a compound that is named as a salt.

Tests used:
[1] = set-up: species or system humans; details: human, in vivo, po, 480 min
Source text: In humans, oral administration of the cephalosporin derivatives according to the present invention led to urinary recovery of the corresponding unesterified cephalosporins at the recovery rates shown below in the table. Method of administration: A 125-mg (on the unesterified form basis) capsule was orally administered. Assay: Microbial method using Bacillus subtilis

[2] = Acute toxicity testing, oral, in mice; details: mouse, in vivo, aqueous solution, male ICR mice 5 weeks of age, n=3
Protocol: The results obtained in oral acute toxicity testing of the cephalosporin derivatives according to the present invention in mice are shown below.
Animals: Male mice (ICR, 5 weeks of age), n=3
Method of administration: The cephalosporin derivatives obtained in the above examples were dissolved in distilled water and the aqueous solutions were orally administered.

Row | Structure (SMILES) | Percent urinary recovery (Hour 0 to Hour 8) [1] [%] | LD50 [2] [mg/kg]
1 | Cn1nnnc1SCC1=C(C(=O)OCOC(=O)C(C)(C)C)N2C(=O)C(NC(=O)[C@H](OC(=O)CN)c3ccccc3)C2SC1 (stereo partly drawn) [Example 1, pivaloyloxymethyl 7-[D-O-(glycyl)mandelamido]-3-[(1-methyl-1H-tetrazol-5-yl)thiomethyl]-3-cephem-4-carboxylate hydrochloride] | 38.0 | 5000
2 | CC(=O)OC(C)OC(=O)C1=C(CSc2nnc(C)s2)CSC2C(NC(=O)[C@H](OC(=O)[C@H](C)N)c3ccccc3)C(=O)N12 (stereo partly drawn) [Example 2, 1-acetoxyethyl 7-[D-O-(L-alanyl)mandelamido]-3-[(5-methyl-1,3,4-thiadiazol-2-yl)thiomethyl]-3-cephem-4-carboxylate hydrochloride] | 35.2 | 
3 | CCOC(=O)OC(C)OC(=O)C1=C(CSc2nncs2)CSC2C(NC(=O)[C@H](OC(=O)[C@H](C)N)c3ccccc3)C(=O)N12 (stereo partly drawn) [Example 3, 1-ethoxycarbonyloxyethyl 7-[D-O-(L-alanyl)mandelamido]-3-[(1,3,4-thiadiazol-2-yl)thiomethyl]-3-cephem-4-carboxylate] | 37.0 | 
4 | Cc1nnc(SCC2=C(C(=O)OCOC(=O)C(C)(C)C)N3C(=O)C(NC(=O)[C@H](OC(=O)[C@@H](N)C(C)C)c4ccccc4)C3SC2)s1 (stereo partly drawn) [Example 6, Pivaloyloxymethyl 7-[D-O-(L-valyl)mandelamido]-3-[(5-methyl-1,3,4-thiadiazol-2-yl)thiomethyl]-3-cephem-4-carboxylate hydrochloride] | 36.0 | 
5 | Cc1nnc(SCC2=C(C(=O)OCOC(=O)C(C)(C)C)N3C(=O)C(NC(=O)[C@H](OC(=O)[C@@H]4CCCN4)c4ccccc4)C3SC2)s1 (stereo partly drawn) [Example 7, Pivaloyloxymethyl 7-[D-O-(L-prolyl)mandelamido]-3-[(5-methyl-1,3,4-thiadiazol-2-yl)thiomethyl]-3-cephem-4-carboxylate hydrochloride] | 41.0 | 5000
6 | Cc1nnc(SCC2=C(C(=O)OCc3oc(=O)oc3C)N3C(=O)C(NC(=O)[C@H](OC(=O)[C@H](C)N)c4ccccc4)C3SC2)s1 (stereo partly drawn) [Example 9, (5-Methyl-1,3-dioxolen-2-on-4-ylmethyl) 7-[D-O-(L-alanyl)mandelamido]-3-[(5-methyl-1,3,4-thiadiazol-2-yl)thiomethyl]-3-cephem-4-carboxylate hydrochloride] | 41.0 | 5000
7 | CC(=O)OC(C)OC(=O)C1=C(CSc2nnc(C)s2)CSC2C(NC(=O)[C@H](OC(=O)[C@@H]3CCCN3)c3ccccc3)C(=O)N12 (stereo partly drawn) [Example 17, 1-Acetoxyethyl 7-[D-O-(L-prolyl)mandelamido]-3-[(5-methyl-1,3,4-thiadiazol-2-yl)thiomethyl]-3-cephem-4-carboxylate hydrochloride] | 40.9 | 5000
